Reference: paper PMC7897990, “TriTOX: A novel Trichomonas vaginalis assay platform for high-throughput screening of compound libraries” (International Journal for Parasitology: Drugs and Drug …, 2021)
“Also recorded” adds a separate entry of the source. Like-named read-outs stand apart in the source and are kept apart here.

What was measured:
T. vaginalis = assay: Medium-throughput (MTS) confirmatory dose-response growth assay, T. vaginalis; assay type: cell-based, Trichomonas vaginalis; settings: for activity against T. vaginalis in MTS, in words: 10-point dilution series, 96-well; for activity against T. vaginalis in MTS, in words / IC50: 48 h; for IC50: 96-well, 10,000 cells/mL in 50 μL, mean ± SEM, >10 = no appreciable activity at highest dose; for species-specificity T. vaginalis vs T. foetus in MTS: comparison of MTS IC50 in both species
Procedure: (§1) For microtiter plate assays, trichomonads were grown in anaerobic conditions within GasPak EZ anaerobe pouches with fresh anaerobic sachets. Working reagent of the chromogen was phenol red (Sigma) in a 1% w/v working solution in phosphate buffered saline (PBS), which was filter sterilised. Chromogen absorbance was monitored at 570 nm on an absorbance microplate reader after plates were allowed to equilibrate in atmospheric conditions at room temperature for at least 5 min.
(§2) After absorbances were measured, data were processed as followed unless indicated otherwise in the text. […] Prism 8 (GraphPad) was used to plot dose-response curves and calculate IC50 values, using a least squares regression, log[inhibitor] vs normalised response (variable slope, four parameters) model. Where replicate plates were used, data for dose-response curves were plotted as the mean±SD of these replicates.
(§3) A selection of 17 compounds assayed in the high-throughput screen (HTS) for T. vaginalis which were available through BioAustralis were obtained for validation of inhibitory in/activity in our optimised medium-throughput format. For this, a 10-point serial dilution was used for drug-susceptibility testing to calculate IC50 values of ‘hit’ compounds. Mtz was used as a positive control. Each screen was performed with 3 technical replicates and a minimum of 2 biological replicates in both T. vaginalis and T. foetus using assay conditions of seeds of 10,000 cells/mL in 50 μL, with absorbance measured at 48 h. Dose response curves and IC50 were calculated for each compound as described above in Section 2.3.

T. foetus = assay: Medium-throughput (MTS) confirmatory dose-response growth assay, T. foetus; assay type: cell-based, Tritrichomonas foetus; settings: 48 h; for IC50: 96-well, 10,000 cells/mL in 50 μL, mean ± SEM, >10 = no appreciable activity at highest dose; for activity against T. foetus in MTS, in words: 10-point dilution series, 96-well
Procedure: as §1, §2, §3

[1] = system: Trichomonas vaginalis G3 trophozoites; settings: for T. vaginalis HTS result in words / T. vaginalis HTS results: 384-well, 25 μL, 10,000 cells/mL, 48 h, biological duplicates; for T. vaginalis HTS result in words: hit = >50% inhibition; for T.vaginalis_Absorbance_Rep1 / T.vaginalis_Absorbance_Rep2 / T.vaginalis_%inb_Rep1 / T.vaginalis_%inb_Rep2: HTS, parasite screen at 1 µg/mL; for T.vaginalis_Absorbance_Rep1: replicate 1, raw absorbance; for T.vaginalis_Absorbance_Rep2: replicate 2, raw absorbance; for T.vaginalis_%inb_Rep1: replicate 1; for T.vaginalis_%inb_Rep2: replicate 2; for T. vaginalis HTS results: 10% chromogen, single concentration
[2] = system: nontumorigenic neonatal foreskin fibroblast (NFF) cell line
[3] = system: Trichomonas vaginalis G3 trophozoites; assay: microbe, parasite or virus in culture; settings: 48 h
[4] = system: Staphylococcus aureus (ATCC 25923); assay type: cell-based; settings: 5 μg/mL
[5] = system: Bacillus subtilis (ATCC 6633); assay type: cell-based; settings: 5 μg/mL
[6] = NFF fibroblast screen at 5 µg/mL, A = active, I = inactive
[7] = read-out: T.vaginalis_%inb_Rep1
[8] = read-out: T.vaginalis_%inb_Rep2

Row | Compound | activity against T. vaginalis in MTS, in words (T. vaginalis) | IC50 (T. vaginalis; Trichomonas vaginalis) [µM] | species-specificity T. vaginalis vs T. foetus in MTS (T. vaginalis) | IC50 (T. foetus; Tritrichomonas foetus) [µM] | T. vaginalis HTS result in words [1] | NFF_Activity [2, 6] | inhibition of growth at 1 µg/mL [3, 7] [%] | inhibition of growth at 1 µg/mL [3, 8] [%] | activity against T. foetus in MTS, in words (T. foetus) | T.vaginalis_Absorbance_Rep1 [1] | T.vaginalis_Absorbance_Rep2 [1] | IC50 (T. vaginalis) [µM] | IC50 (T. foetus) [µM] | T.vaginalis_%inb_Rep1 [1] [%] | T.vaginalis_%inb_Rep2 [1] [%] | T. vaginalis HTS results [1] | further results
1 | N#Cc1cn([C@@H]2O[C@H](CO)[C@@H](O)[C@H]2O)c2ncnc(N)c12 [Toyocamycin, toyocamycin, reference compound] | true positives | 0.3 ± 0.01 | remained active against both T. vaginalis and T. foetus | 2.4 ± 0.7 | supported the anti-trichomonal activity | I (otherwise these were reported as inactive (I)) | 69.9 | 77.5 |  |  |  |  |  |  |  |  | 
2 | CO[C@@H]1[C@H](OC(=O)/C=C/C=C/C=C/C=C/C(=O)O)CC[C@]2(CO2)[C@H]1[C@@]1(C)O[C@@H]1CC=C(C)C [Fumagillin, fumagillin, reference compound] | near nanomolar potency | 0.26 ± 0.11 |  | 0.18 ± 0.03 |  |  | 48.9 | 45.5 | near nanomolar potency | 1.617 | 1.25 |  |  |  |  |  | activity against T. vaginalis in MTS, in words (T. vaginalis; listed as fumagillin): true positives; antibacterial activity against Staphylococcus aureus [4]: no anti-bacterial; antibacterial activity against Bacillus subtilis [5]: no anti-bacterial; cytotoxic activity (NFF) [2]: no anti-bacterial nor cytotoxic activity
3 | COc1ccc2cc1Oc1cc(ccc1O)[C@H](O)[C@]13SS[C@@]4(C(=O)N1C)[C@H](O)C1=COC=C[C@H](OC2=O)[C@H]1N4C3=O [Emestrin, emestrin, reference compound] | inactive |  |  |  | partial hits |  |  |  | inconsistent between biological replicates | 0.943 | 1.619 | > 10 | 7.3 ± 3.3 | 12.22 | 63.12 |  | NFF_Activity ([2]; NFF_NS1 screen at 5 µg/mL): A (active (A) compounds having >25% inhibitory activity)
4 | CC(/C=C/C(=O)NO)=C\[C@@H](C)C(=O)c1ccc(N(C)C)cc1 [Trichostatin A, trichostatin A, reference compound] |  |  |  |  | supported the anti-trichomonal activity | I (otherwise these were reported as inactive (I)) |  |  |  |  |  | 0.22 ± 0.06 | 0.048 ± 0.006 | 71.95 | 67.89 |  | activity against T. vaginalis in MTS, in words (T. vaginalis; listed as TSA): true positives
5 | CN1C(=O)[C@]23CC4=CC=C[C@H](O)[C@H]4N2C(=O)[C@@]1(CO)SS3 [Gliotoxin, gliotoxin, reference compound] | no activity | > 10 |  | > 10 |  |  | 71 | 78.7 |  | 2.103 | 1.862 |  |  |  |  |  | NFF_Activity ([2]; NFF_NS1 screen at 5 µg/mL): A (active (A) compounds having >25% inhibitory activity)
6 | CC(C=CC1OC(=O)C=CC1C)=CC(C)CC=CC(C)=CC(C)C(=O)C(C)C(O)C(C)CC(C)=CC(=O)O (stereo not drawn) [Leptomycin A, leptomycin A] | true negatives |  |  |  |  |  |  |  |  |  |  | > 10 | > 10 |  |  | I | 
7 | Cn1ncnc2c(=O)n(C)c(=O)nc1-2 [Toxoflavin, toxoflavin, reference compound] | confirmed active |  | remained active against both T. vaginalis and T. foetus |  | partial hits | A (active (A) compounds having >25% inhibitory activity) |  |  |  |  |  | 3.1 ± 1.7 | 4.1 ± 0.9 | 5.72 | 100.00 |  | 
8 | Nc1ncnc2c1ccn2[C@@H]1O[C@H](CO)[C@@H](O)[C@H]1O [Tubercidin, tubercidin] | true positives | 2.4 ± 0.1 | selective activity against T. vaginalis but not T. foetus | > 10 |  | A (active (A) compounds having >25% inhibitory activity) | 63.8 | 76 |  |  |  |  |  |  |  |  | 
9 | CCC(=O)CCCCC[C@@H]1NC(=O)[C@H]2CCCCN2C(=O)[C@H]([C@@H](C)CC)NC(=O)[C@H](Cc2cn(OC)c3ccccc23)NC1=O [Apicidin, apicidin] | confirmed active; also recorded: micromolar IC50 values | 1.2 ± 0.1 |  | 1.9 ± 0.2 | inactive in both T. vaginalis HTS replicates |  |  |  | micromolar IC50 values |  |  |  |  |  |  | I | 
10 | O=[N+]([O-])c1ncc[nH]1 [Azomycin, azomycin] | confirmed active; also recorded: inconsistent activity | 9.7 ± 5.5 |  | 8.6 ± 4.3 | inactive |  |  |  |  |  |  |  |  |  |  | I | 
